According to ChEMBL document CHEMBL3779779, “Discovery of non-peptide small molecular CXCR4 antagonists as anti-HIV agents: Recent advances and future opportunities” (Eur J Med Chem, 2016):

Key:
[1] = test system: Human immunodeficiency virus; assay: Antiviral activity against HIV LAV Clade B infected in human MT4 cells assessed as inhibition of syncytia formation preincubated with cells for 1 hr followed by viral infection […] by inverted optical microscopic analysis; assay type: functional, organism-based; details: Human immunodeficiency virus 1, LAV Clade B
[2] = Selectivity index, ratio of CC50 for human MT4 cells to EC50 for HIV LAV Clade B infected in human MT4 cells; assay type: toxicity, cell-based; details: read-out: Ratio CC50/EC50
[3] = test system: Human immunodeficiency virus 1; assay: Antiviral activity against HIV1 NL4-3 clinical isolate X4 infected in human MT4 cells assessed as reduction in virus-induced cytopathic effect after 5 days by MTT assay; assay type: functional, organism-based; details: Human immunodeficiency virus 1, NL4-3 isolate X4, MT4, 120 h
[4] = test system: Human immunodeficiency virus 1; assay: Antiviral activity against HIV1 3B infected in human MT4 cells assessed as reduction in virus-induced cytopathic effect after 5 days by MTT assay; assay type: functional, organism-based; details: Human immunodeficiency virus 1, 3B, MT4, 120 h
[5] = target: C-X-C chemokine receptor type 4 (Homo sapiens, UniProt P61073); assay: Displacement of [125I]SDF-1 from human CXCR4 expressed in HEK293 cell membrane; assay type: cell membranes
[6] = Selectivity index, ratio of CC50 for human MT4 cells to EC50 for HIV1 3B infected in human MT4 cells; assay type: toxicity, cell-based; details: read-out: Ratio CC50/EC50
[7] = test system: Human immunodeficiency virus 1; assay: Antiviral activity against HIV1 clinical isolate R5 by cell based assay; assay type: functional, organism-based; details: Human immunodeficiency virus 1, isolate R5
[8] = test system: Human immunodeficiency virus 1; assay: Antiviral activity against HIV1 clinical isolate R5/X4 by cell based assay; assay type: functional, organism-based; details: Human immunodeficiency virus 1, isolate R5/X4
[9] = test system: Human immunodeficiency virus 1; assay: Antiviral activity against HIV1 clinical isolate X4 by cell based assay; assay type: functional, organism-based; details: Human immunodeficiency virus 1, isolate X4
[10] = test system: Human immunodeficiency virus 1; assay: Antiviral activity against HIV1 infected in human MT4 cells assessed as reduction in virus-induced cytopathic effect after 4 to 5 days by MTS assay; assay type: functional, organism-based; details: Human immunodeficiency virus 1, MT4
[11] = Elimination half life in dog plasma at 0.41 mg/kg, iv and 0.41 to 2.05 mg/kg, sc by LC-MS/MS analysis; assay type: ADME, organism-based, Canis lupus familiaris; details: read-out: beta t1/2 (converted)
[12] = Tmax in Swiss Webster mouse plasma at 25 mg/kg, sc by LC-MS/MS analysis; assay type: ADME, organism-based
[13] = test system: Human immunodeficiency virus 2; assay: Antiviral activity against HIV2 ROD infected in human MT4 cells assessed as reduction in virus-induced cytopathic effect after 5 days by MTT assay; details: Human immunodeficiency virus 2, ISOLATE ROD, MT4, 120 h

C-X-C chemokine receptor type 4, sequence (P61073 whole entry): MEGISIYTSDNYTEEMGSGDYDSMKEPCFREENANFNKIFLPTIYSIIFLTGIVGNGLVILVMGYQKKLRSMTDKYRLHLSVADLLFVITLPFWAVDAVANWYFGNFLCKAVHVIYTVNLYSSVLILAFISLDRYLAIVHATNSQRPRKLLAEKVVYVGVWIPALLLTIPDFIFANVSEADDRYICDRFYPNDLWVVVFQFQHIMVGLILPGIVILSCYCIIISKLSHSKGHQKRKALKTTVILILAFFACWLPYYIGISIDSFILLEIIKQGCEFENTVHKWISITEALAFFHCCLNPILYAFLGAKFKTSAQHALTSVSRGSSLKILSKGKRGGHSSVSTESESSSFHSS

Cc1cn([C@H]2C[C@H](N=[N+]=[N-])[C@@H](COC(=O)CCCCN3CCCN(Cc4ccc(CN5CCCNCCNCCCNCC5)cc4)CCNCCCNCC3)O2)c(=O)[nH]c1=O
EC50 [1]: 5 nM
selectivity ratio [2]: 15000

Cn1c(CN(CCN2CCCCC2)CC2CCCN(C3CCCC3)C2)nc2ccccc21 (centres undefined)
EC50 [3]: 600 nM

c1cc(CN2CCCSCCSCCCNCC2)ccc1CN1CCCSCCSCCCNCC1
EC50 [4]: > 6800 nM

CC(C)CN(CCC[C@H](NC(=O)c1ccc(CNCc2ncc[nH]2)cc1)C(=O)N[C@@H](C)c1cccc2ccccc12)CC(C)C
EC50 [4]: 6.7 nM

Cc1cn([C@H]2C[C@H](N=[N+]=[N-])[C@@H](COC(=O)CCCCN3CCCN(Cc4ccc(CN5CCCN(C(=O)OC(C)(C)C)CCN(C(=O)OC(C)(C)C)CCCN(C(=O)OC(C)(C)C)CC5)cc4)CCN(C(=O)OC(C)(C)C)CCCN(C(=O)OC(C)(C)C)CC3)O2)c(=O)[nH]c1=O
EC50 [1]: 5 nM
selectivity ratio [2]: 1000

c1ccc2c(NC3CCNCC3)nc(NCc3ccc(CNCCCNC4CCCCC4)cc3)nc2c1
EC50 [5]: 68.4 nM

C1CNCCNCCCN(CCCN2CCCNCCNCCCNCC2)CCNC1
selectivity ratio [6]: > 2500
EC50 [4]: 248 nM

Cc1cn([C@H]2C[C@H](N=[N+]=[N-])[C@@H](COC(=O)CCCCN3CCCNCCNCCCNCC3)O2)c(=O)[nH]c1=O
EC50 [1]: 10 nM

c1cc(CN2CCCNCCOCCCNCC2)ccc1CN1CCCNCCOCCCNCC1
EC50 [4]: 4500 nM

Clc1cc(CN2CCCNCCNCCCNCC2)cc(Cl)n1
EC50 [7]: 1200 nM
EC50 [8]: 1200 nM
EC50 [9]: 1200 nM

c1cc(CN2CCCNCCCCCCNCC2)ccc1CN1CCCNCCCCCCNCC1
EC50 [4]: 9600 nM

c1cc(CN2CCCOCCOCCCNCC2)ccc1CN1CCCOCCOCCCNCC1
EC50 [4]: > 363000 nM

c1ccc(CNCc2ccc(CN3CCCNCCNCCCNCC3)cc2)nc1
EC50 [10]: 1 nM
half-life [11]: 93.6 min
Tmax [12]: 15 min

CCCN(CCC)CCCCNC(=O)c1ccc(CN(Cc2ncc[nH]2)Cc2ncc[nH]2)cc1
EC50 [4]: 4 nM

c1cc(CN2CCCNCCNCCCNCC2)ccc1CN1CCCNCCNCCCNCC1 [PLERIXAFOR]
EC50 [13]: 2 nM

C1CNCCNCCCN[C@H]([C@@H]2CNCCCNCCNCCCN2)CNC1
selectivity ratio [6]: > 1000
EC50 [4]: 100 nM
